Source: patent publication US20230085307A1, “PYRIDAZINONE COMPOUND AND HERBICIDE” (NISSAN CHEMICAL CORPORATION, priority 2019, published 2023)

Columns and labels:
[1] = test system: late watergrass; assay: Test Example 2: herbicidal activity, application during weed generation under submerged conditions (Table 17, symbol A); type: in vivo, late watergrass (Echinochloa oryzicola); settings: AAH 320 g/ha; application during weed generation, submerged conditions
Description: (§1) [Test Example 2] Herbicidal Activity Test by Application during Weed Generation under Submerged Conditions After alluvial soil was placed into 1/10000 are of Wagner pot, water was poured and mixed to form a submerged condition having a water depth of 4 cm. Seeds of late watergrass, Japanese bulrush, and oval-leafed pondweed were sowed in a mixed manner in the aforementioned pot, and the pot was placed in a greenhouse at 25° C. to 30° C. for growth of the plants. When late watergrass, Japanese bulrush, and oval-leafed pondweed were grown to one leaf stage to two leaf stage, the emulsion agent of the compound of the present invention prepared according to Formulation Example 2 was diluted with water so as to achieve a predetermined herbicide amount, and the diluted emulsion agent was applied to the surface of the water. Three weeks after the herbicide application, the effect of the herbicide on each plant was evaluated according to the criteria of Test Example 1.

[2] = test system: lambsquarters; assay: Test Example 4: herbicidal effect by soil treatment (Table 19, symbol O); type: in vivo, lambsquarters (Chenopodium album); settings: amount of applied herbicide 320 g/ha
Summary of the method: (§2)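 In this soil treatment, the formulated compound reached the seeds only through the soil: seeds were buried about 1.5 cm deep in sterilized diluvial soil, then the diluted emulsion was sprayed over the surface. After three weeks at 25° C. to 30° C. in a greenhouse, effects were graded on criteria from an earlier test.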

[3] = test system: barnyard grass; assay: Test Example 3: herbicidal effect by foliage application, Wagner pot (Table 18, symbol H); type: in vivo, barnyard grass (Echinochloa crus-galli); settings: 320 g/ha
Summary of the method: (§3)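 Plants were sown in alluvial soil held under 0.1–0.5 cm standing water and grown 14 days in a greenhouse at 25–30 °C. An emulsifiable formulation, water-diluted to the set dose, was then sprayed onto the foliage, and effects were scored three weeks later using previously defined criteria.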

[4] = test system: redroot pigweed; assay: Test Example 5: herbicidal effect by foliage application, plastic box (Table 20, symbol N); type: in vivo, redroot pigweed (Amaranthus retroflexus); settings: 320 g/ha
Summary of the method: (§4)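 Plants were sown into sterilized diluvial soil under about 1.5 cm cover and kept in a greenhouse at 25° C. to 30° C. Fourteen days on, foliage received an even spray of the diluted emulsion. Herbicidal or crop effect was judged three weeks afterwards.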

[5] = test system: green foxtail; assay: Test Example 4: herbicidal effect by soil treatment (Table 19, symbol G); type: in vivo, green foxtail (Setaria viridis); settings: amount of applied herbicide 320 g/ha
Summary of the method: as §2

[6] = test system: southern crabgrass; assay: Test Example 4: herbicidal effect by soil treatment (Table 19, symbol F); type: in vivo, southern crabgrass (Digitaria ciliaris); settings: amount of applied herbicide 320 g/ha
Summary of the method: as §2

[7] = test system: southern crabgrass; assay: Test Example 5: herbicidal effect by foliage application, plastic box (Table 20, symbol F); type: in vivo, southern crabgrass (Digitaria ciliaris); settings: 320 g/ha
Summary of the method: as §4

[8] = test system: rice flat sedge; assay: Test Example 3: herbicidal effect by foliage application, Wagner pot (Table 18, symbol E); type: in vivo, rice flat sedge (Cyperus iria); settings: 320 g/ha
Summary of the method: as §3

[9] = test system: barnyard grass; assay: Test Example 5: herbicidal effect by foliage application, plastic box (Table 20, symbol H); type: in vivo, barnyard grass (Echinochloa crus-galli); settings: 320 g/ha
Summary of the method: as §4

[10] = test system: lambsquarters; assay: Test Example 5: herbicidal effect by foliage application, plastic box (Table 20, symbol O); type: in vivo, lambsquarters (Chenopodium album); settings: 320 g/ha
Summary of the method: as §4

[11] = test system: green foxtail; assay: Test Example 5: herbicidal effect by foliage application, plastic box (Table 20, symbol G); type: in vivo, green foxtail (Setaria viridis); settings: 320 g/ha
Summary of the method: as §4

[12] = test system: Japanese bulrush; assay: Test Example 2: herbicidal activity, application during weed generation under submerged conditions (Table 17, symbol B); type: in vivo, Japanese bulrush (Schoenoplectus juncoides); settings: AAH 320 g/ha; application during weed generation, submerged conditions
Description: as §1

[13] = test system: Chinese sprangletop; assay: Test Example 3: herbicidal effect by foliage application, Wagner pot (Table 18, symbol D); type: in vivo, chinese sprangletop (Leptochloa chinensis); settings: 320 g/ha
Summary of the method: as §3

[14] = test system: velvetleaf; assay: Test Example 4: herbicidal effect by soil treatment (Table 19, symbol M); type: in vivo, velvetleaf (Abutilon theophrasti); settings: amount of applied herbicide 320 g/ha
Summary of the method: as §2

[15] = test system: redroot pigweed; assay: Test Example 4: herbicidal effect by soil treatment (Table 19, symbol N); type: in vivo, redroot pigweed (Amaranthus retroflexus); settings: amount of applied herbicide 320 g/ha
Summary of the method: as §2

[16] = test system: oval-leafed pondweed; assay: Test Example 2: herbicidal activity, application during weed generation under submerged conditions (Table 17, symbol C); type: in vivo, oval-leafed pondweed (Monochoria vaginalis); settings: AAH 320 g/ha; application during weed generation, submerged conditions
Description: as §1

[17] = test system: velvetleaf; assay: Test Example 5: herbicidal effect by foliage application, plastic box (Table 20, symbol M); type: in vivo, velvetleaf (Abutilon theophrasti); settings: 320 g/ha
Summary of the method: as §4

[18] = test system: barnyard grass; assay: Test Example 4: herbicidal effect by soil treatment (Table 19, symbol H); type: in vivo, barnyard grass (Echinochloa crus-galli); settings: amount of applied herbicide 320 g/ha
Summary of the method: as §2

[19] = test system: blackgrass; assay: Test Example 4: herbicidal effect by soil treatment (Table 19, symbol J); type: in vivo, blackgrass (Alopecurus myosuroides); settings: amount of applied herbicide 320 g/ha
Summary of the method: as §2

[20] = test system: Italian ryegrass; assay: Test Example 4: herbicidal effect by soil treatment (Table 19, symbol K); type: in vivo, Italian ryegrass (Lolium multiflorum); settings: amount of applied herbicide 320 g/ha
Summary of the method: as §2

[21] = test system: Japanese bulrush; assay: Test Example 1: herbicidal activity, application before weed generation under submerged conditions (Table 16, symbol B); type: in vivo, Japanese bulrush (Schoenoplectus juncoides); settings: 320 g/ha applied herbicide
Summary of the method: (§5)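 Submerged Wagner pots (alluvial soil, 4 cm water) sown with weed seeds and planted with 2.5-leaf rice seedlings; emulsifiable concentrate diluted in water applied to water surface on sowing day. Held in greenhouse at 25-30 °C; injury scored 0-5 by herbicidal rate after three weeks.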

[22] = test system: wild oat; assay: Test Example 4: herbicidal effect by soil treatment (Table 19, symbol I); type: in vivo, wild oat (Avena fatua); settings: amount of applied herbicide 320 g/ha
Summary of the method: as §2

[23] = test system: wild oat; assay: Test Example 5: herbicidal effect by foliage application, plastic box (Table 20, symbol I); type: in vivo, wild oat (Avena fatua); settings: foliage application, 320 g/ha, three weeks after application
Summary of the method: as §4

[24] = test system: Italian ryegrass; assay: Test Example 5: herbicidal effect by foliage application, plastic box (Table 20, symbol K); type: in vivo, Italian ryegrass (Lolium multiflorum); settings: foliage application, 320 g/ha, three weeks after application
Summary of the method: as §4

[25] = test system: windgrass; assay: Test Example 5: herbicidal effect by foliage application, plastic box (Table 20, symbol L); type: in vivo, windgrass (Apera spica-venti); settings: foliage application, 320 g/ha, three weeks after application
Summary of the method: as §4

[26] = test system: persian speedwell; assay: Test Example 5: herbicidal effect by foliage application, plastic box (Table 20, symbol R); type: in vivo, Persian speedwell (Veronica persica); settings: foliage application, 320 g/ha, three weeks after application
Summary of the method: as §4

[27] = test system: late watergrass; assay: Test Example 1: herbicidal activity, application before weed generation under submerged conditions (Table 16, symbol A); type: in vivo, late watergrass (Echinochloa oryzicola); settings: 320 g/ha applied herbicide
Summary of the method: as §5

[28] = test system: chickweed; assay: Test Example 5: herbicidal effect by foliage application, plastic box (Table 20, symbol P); type: in vivo, common chickweed (Stellaria media); settings: foliage application, 320 g/ha, three weeks after application
Summary of the method: as §4

[29] = test system: oval-leafed pondweed; assay: Test Example 1: herbicidal activity, application before weed generation under submerged conditions (Table 16, symbol C); type: in vivo, oval-leafed pondweed (Monochoria vaginalis); settings: 320 g/ha applied herbicide
Summary of the method: as §5

[30] = test system: blackgrass; assay: Test Example 5: herbicidal effect by foliage application, plastic box (Table 20, symbol J); type: in vivo, blackgrass (Alopecurus myosuroides); settings: foliage application, 320 g/ha, three weeks after application
Summary of the method: as §4

[31] = foliage application after 14-day growth, evaluated three weeks after application
[32] = foliage application, three weeks after application

`COc1ccc2c(-c3c(O)c(C)nn(C)c3=O)c(-c3ccc(OC(F)(F)F)cc3)sc2c1` [3-170] was tested, and the “herbicidal effect rating, A: late watergrass” value [1] was 2 (Herbicidal rate of 20% or more and less than 40%), the “Herbicidal effect by soil treatment, O: lambsquarters” value [2] was 1 (Herbicidal rate of 5% or more and less than 20%) and the “herbicidal effect on barnyard grass (H)” value [3] was 3 (Herbicidal rate of 40% or more and less than 70%). The “herbicidal effect on N: redroot pigweed (evaluation grade 0-5)” value [4, 31] was 4 (Herbicidal rate of 70% or more and less than 90%), the “Herbicidal effect by soil treatment, G: green foxtail” value [5] was 0 (Herbicidal rate of 5% or less (almost no effect)) and the “Herbicidal effect by soil treatment, F: southern crabgrass” value [6] was 0 (Herbicidal rate of 5% or less (almost no effect)). For the same compound, the “herbicidal effect on F: southern crabgrass (evaluation grade 0-5)” value [7, 31] was 0 (Herbicidal rate of 5% or less (almost no effect)), the “herbicidal effect on rice flat sedge (E)” value [8] was 0 (Herbicidal rate of 5% or less (almost no effect)) and the “herbicidal effect on H: barnyard grass (evaluation grade 0-5)” value [9, 31] was 0 (Herbicidal rate of 5% or less (almost no effect)). The “herbicidal effect on O: lambsquarters (evaluation grade 0-5)” value [10, 31] was 5 (Herbicidal rate of 90% or more (almost completely withered)), the “herbicidal effect on G: green foxtail (evaluation grade 0-5)” value [11, 31] was 0 (Herbicidal rate of 5% or less (almost no effect)) and the “herbicidal effect rating, B: Japanese bulrush” value [12] was 0 (Herbicidal rate of 5% or less (almost no effect)). For the same compound, the “herbicidal effect on Chinese sprangletop (D)” value [13] was 0 (Herbicidal rate of 5% or less (almost no effect)), the “Herbicidal effect by soil treatment, M: velvetleaf” value [14] was 0 (Herbicidal rate of 5% or less (almost no effect)) and the “Herbicidal effect by soil treatment, N: redroot pigweed” value [15] was 4 (Herbicidal rate of 70% or more and less than 90%). For the same compound, the “herbicidal effect rating, C: oval-leafed pondweed” value [16] was 0 (Herbicidal rate of 5% or less (almost no effect)), the “herbicidal effect on M: velvetleaf (evaluation grade 0-5)” value [17, 31] was 3 (Herbicidal rate of 40% or more and less than 70%) and the “Herbicidal effect by soil treatment, H: barnyard grass” value [18] was 0 (Herbicidal rate of 5% or less (almost no effect)).
For `CCOc1ccc(-c2sc3ccccc3c2-c2c(O)c(C)nn(C)c2=O)cc1` [1-013], the “herbicidal effect rating, J: blackgrass” value [19] was 0 (Herbicidal rate of 5% or less (almost no effect)), the “herbicidal effect rating, K: Italian ryegrass” value [20] was 0 (Herbicidal rate of 5% or less (almost no effect)) and the “Herbicidal effect on B: Japanese bulrush (grade 0-5)” value [21] was 4 (Herbicidal rate of 70% or more and less than 90%). The “herbicidal effect rating, I: wild oat” value [22] was 0 (Herbicidal rate of 5% or less (almost no effect)), the “herbicidal effect on H (barnyard grass), rating 0-5” value [3] was 5 (Herbicidal rate of 90% or more (almost completely withered)) and the “herbicidal effect grade, N: redroot pigweed” value [4, 32] was 3 (Herbicidal rate of 40% or more and less than 70%). For the same compound, the “herbicidal effect grade, I: wild oat” value [23] was 0 (Herbicidal rate of 5% or less (almost no effect)), the “herbicidal effect grade, K: Italian ryegrass” value [24] was 3 (Herbicidal rate of 40% or more and less than 70%) and the “herbicidal effect rating, G: green foxtail” value [5] was 5 (Herbicidal rate of 90% or more (almost completely withered)). For the same compound, the “herbicidal effect rating, F: southern crabgrass” value [6] was 0 (Herbicidal rate of 5% or less (almost no effect)), the “herbicidal effect grade, L: windgrass” value [25] was 0 (Herbicidal rate of 5% or less (almost no effect)) and the “herbicidal effect grade, F: southern crabgrass” value [7, 32] was 0 (Herbicidal rate of 5% or less (almost no effect)). The “herbicidal effect on E (rice flat sedge), rating 0-5” value [8] was 5 (Herbicidal rate of 90% or more (almost completely withered)), the “herbicidal effect grade, H: barnyard grass” value [9, 32] was 4 (Herbicidal rate of 70% or more and less than 90%) and the “herbicidal effect grade, R: persian speedwell” value [26] was 5 (Herbicidal rate of 90% or more (almost completely withered)). The “herbicidal effect grade, O: lambsquarters” value [10, 32] was 3 (Herbicidal rate of 40% or more and less than 70%), the “herbicidal effect grade, G: green foxtail” value [11, 32] was 5 (Herbicidal rate of 90% or more (almost completely withered)) and the “Herbicidal effect on A: late watergrass (grade 0-5)” value [27] was 4 (Herbicidal rate of 70% or more and less than 90%). For the same compound, the “herbicidal effect grade, P: chickweed” value [28] was 5 (Herbicidal rate of 90% or more (almost completely withered)), the “herbicidal effect rating, B: Japanese bulrush” value [12] was 3 (Herbicidal rate of 40% or more and less than 70%) and the “Herbicidal effect on C: oval-leafed pondweed (grade 0-5)” value [29] was 3 (Herbicidal rate of 40% or more and less than 70%). For the same compound, the “herbicidal effect on D (Chinese sprangletop), rating 0-5” value [13] was 1 (Herbicidal rate of 5% or more and less than 20%), the “herbicidal effect rating, M: velvetleaf” value [14] was 0 (Herbicidal rate of 5% or less (almost no effect)) and the “herbicidal effect rating, N: redroot pigweed” value [15] was 3 (Herbicidal rate of 40% or more and less than 70%). The “herbicidal effect rating, C: oval-leafed pondweed” value [16] was 3 (Herbicidal rate of 40% or more and less than 70%), the “herbicidal effect grade, J: blackgrass” value [30] was 0 (Herbicidal rate of 5% or less (almost no effect)) and the “herbicidal effect grade, M: velvetleaf” value [17, 32] was 5 (Herbicidal rate of 90% or more (almost completely withered)). The “herbicidal effect rating, H: barnyard grass” value [18] was 4 (Herbicidal rate of 70% or more and less than 90%).
